One may read the EC50 as the concentration at which the effect is half-maximal.

Experimental findings from patent US20160122386A1, “V1A RECEPTOR AGONISTS” (FERRING B.V., priority 2014, published 2016) are described below.

The assay concerns the target T1, human V1aR (Homo sapiens, UniProt P37288).
T1 construct: expressed in transfected cells
The experiment in a line: Agonist activity at vasopressin V1a receptors, cell-based FLIPR calcium assay. The following applies: for Emax: read-out: Efficacy Avg. (%). The protocol:
Efficacy (% MPE) is also determined as the percentage of maximal possible effect. This agonist assay utilizes cells from a stable cell line (HEK-flpin) expressing the vasopressin V1a receptor. Intracellular calcium increase in response to agonist is measured through real-time fluorescence of an intracellular calcium-sensitive dye. Cells are exposed to varying concentrations of test agonist compounds whereupon release of intracellular calcium is measured to determine the agonist potency and efficacy.
The cell line stably expresses the lacZ-Zeocin™ fusion gene and is designed for use with the Flp-In™ expression vector containing the gene of interest and the Flp recombinase expression plasmid, pOG44. The cell line contains a single integrated Flp Recombination Target (FRT) site from pFRT/lacZeo or pFRT/lacZeo2. To generate the HEK-flpin cell line stably expressing the human V1aR, the cells were co-transfected with the Flp-In™ expression vector containing the gene of interest (pcDNA5/FRT-hV1aR) and the Flp recombinase expression plasmid pOG44. Flp recombinase mediates insertion of the Flp-In™ expression vector into the genome at the integrated FRT site through site-specific DNA recombination. Stable cell lines expressing the hV1aR from the Flp-In™ expression vector can be generated by selection using hygromycin B. See Life Technologies/Invitrogen manual, Growth and Maintenance of Flp-In™ Cell Lines, Version E, published Feb.
Efficacy of this compound was set to be 100%. A stock solution of 5 mM was made up in DMSO and stored at −20° C.
HEK-flpin-hV1aR, cmcqV1aR, dV1aR and pV1aR cells were maintained in DMEM containing 10% (v/v) FBS-HI, 4 mM GlutaMAX™-I, 25 μg/mL Hygromycin B at 37° C. under 5% CO2 in a humidified atmosphere. Subculture was achieved by splitting semi-confluent cultures 1:3 to 1:6.
All compounds were made up in 100% DMSO at 10 mM stock concentrations and stored at −20° C. The compounds were allowed to thaw just before the assay. […] Typical dilution procedure of 10× final assay concentration involved a 1:100 top dilution (e.g., 2 μl Stock into 198 μl dilution medium) followed by half-log serial dilutions (e.g., 25.3 μl into 54.7 μl dilution medium supplemented with 1% DMSO (v/v)). (Dilution media consisted of phenol-red free DMEM containing 10% FBS-HI, 4 mM GlutaMAX™-I). […] The final DMSO concentration in the assay was 0.1%.
Loading Buffer was prepared by dissolving 1 vial of Calcium 4 Assay reagent in 100 mL of 1× HBSS-20 mM Hepes buffer.
The cells were loaded with Loading Buffer as follows. Cell plates were removed from the incubator and 20 μl of Loading Buffer containing probenecid (2.5 mM) was added to each well. The cells were incubated for 1 hr at 37° C. under 5% CO2 in a humidified atmosphere. The calcium image was obtained as follows.
The cell plates were transferred to FLIPR Tetra, along with a 384 well V-bottom plate pre-loaded with half-log concentrations of test compounds at 10× final test concentrations. The remaining steps of the assay were carried forward by FLIPR Tetra. A baseline reading was taken at 1-second (s) intervals for 5s followed by the addition of 5 μl of 10× compounds (test, reference, or Blank). The agonist-induced fluorescence signal was then measured for 180 s with initial 120 readings at 1-second intervals followed by 20 readings at 3-second intervals. Overall, each well in the FLIPR assay was composed of the following components in a total volume of 50 μl: 20 μl cells; 20 μl Calcium 4 Loading Buffer; […] 10× test or reference compound.

Structures are written as SMILES. Starred links: 1 amine or outer side, 2 acyl side, 3 side chain; linkers in the order of their positions; H or OH if unused. Positions of bridges follow the written chain, without caps; N, C: chain ends. Non-standard residues stand in square brackets, D forms with d. Residues, ends and D or L forms follow the SMILES beside them. Chains are numbered I, II in the order given. *: point of attachment. d(isoGln) = NC(=O)[C@@H](CCC(=O)[*:2])N[*:1]; X3 = O=C([C@H](CCCNCCCCN[*:3])N[*:1])[*:2]; X2 = N=C(N)N[C@@H](CCCCN[*:1])C(=O)[*:2]; isoGln = NC(=O)[C@H](CCC(=O)[*:2])N[*:1]; X1 = N[C@@H](CCC(=O)[*:2])C(=O)[*:1]; εLys = N[C@@H](CCCCN[*:1])C(=O)[*:2]; Glutaryl = O=C(CCCC(=O)[*:2])[*:1]; Aad = N[C@@H](CCCC(=O)O)C(=O)O; Cit = NC(=O)NCCC[C@H](N)C(=O)O; Orn = NCCC[C@H](N)C(=O)O; Dab = NCC[C@H](N)C(=O)O; PhAc = O=C(Cc1ccccc1)*

T1 sequence (P37288 whole entry): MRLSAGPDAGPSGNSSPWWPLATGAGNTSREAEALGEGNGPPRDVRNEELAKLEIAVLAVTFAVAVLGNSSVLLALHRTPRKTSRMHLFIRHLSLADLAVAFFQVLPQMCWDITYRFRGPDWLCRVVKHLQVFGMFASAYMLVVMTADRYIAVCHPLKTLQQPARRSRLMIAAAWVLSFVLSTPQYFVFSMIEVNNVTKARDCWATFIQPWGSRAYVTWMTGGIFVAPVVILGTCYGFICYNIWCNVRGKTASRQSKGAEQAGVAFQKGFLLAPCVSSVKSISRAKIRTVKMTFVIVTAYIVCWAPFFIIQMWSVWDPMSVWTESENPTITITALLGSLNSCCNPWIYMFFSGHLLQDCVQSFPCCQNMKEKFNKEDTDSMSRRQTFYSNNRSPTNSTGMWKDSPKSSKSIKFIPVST

Regarding `CC[C@H](C)[C@@H]1NC(=O)[C@H](Cc2ccccc2)NC(=O)[C@@H](N)CSSC[C@@H](C(=O)N2CCC[C@H]2C(=O)N[C@@H](CCNC(=O)[C@@H](N)CCCCNC(=O)CC[C@@H](NC(=O)[C@H](CCCNC(=N)N)NC(=O)[C@@H]2CCCN2C(=O)[C@H](CCCNC(N)=O)NC(=O)[C@H](CC(N)=O)NC(=O)[C@H](CCC(N)=O)NC(=O)[C@H](Cc2ccccc2)NC(=O)[C@@H](Cc2ccc(OC)cc2)NC(=O)Cc2ccccc2)C(N)=O)C(=O)NCC(N)=O)NC(=O)[C@H](CC(N)=O)NC(=O)[C@H](CCC(N)=O)NC1=O` [Compound 57] (I: H-CFIQNCP[Dab]G-NH2 / II: PhAc-[dY](Me)FQN[Cit]PR[d(isoGln)][εLys]; disulfide I:1-I:6; amide I:8-II:C), the EC50 worked out at 1.4 nM and the Emax was found to be 63%.
As for `CC[C@H](C)[C@@H]1NC(=O)[C@H](Cc2ccccc2)NC(=O)[C@@H](N)CSSC[C@@H](C(=O)N2CCC[C@H]2C(=O)N[C@@H](CCCNCCCCCC(=O)NCCCC[C@H](NC(=O)[C@H](CCCNC(=N)N)NC(=O)[C@@H]2CCCN2C(=O)[C@H](CC(C)C)NC(=O)[C@H](CC(N)=O)NC(=O)[C@H](CCC(N)=O)NC(=O)[C@H](Cc2ccccc2)NC(=O)[C@@H](Cc2ccc(OC)cc2)NC(=O)Cc2ccccc2)C(N)=O)C(=O)NCC(N)=O)NC(=O)[C@H](CC(N)=O)NC(=O)[C@H](CCC(N)=O)NC1=O` [Compound 9], the EC50 is above 10000 nM and the Emax worked out at 34%.
The like results for `CC[C@H](C)[C@@H]1NC(=O)[C@H](Cc2ccccc2)NC(=O)[C@@H](N)CSSC[C@@H](C(=O)N2CCC[C@H]2C(=O)N[C@@H](CCCNCCCCCNC(=O)CC[C@H](NC(=O)[C@H](CCCNC(=N)N)NC(=O)[C@@H]2CCCN2C(=O)[C@H](CCN)NC(=O)[C@H](CC(N)=O)NC(=O)[C@H](CCC(N)=O)NC(=O)[C@H](Cc2ccccc2)NC(=O)[C@@H](Cc2ccc(OC)cc2)NC(=O)Cc2ccccc2)C(N)=O)C(=O)NCC(N)=O)NC(=O)[C@H](CC(N)=O)NC(=O)[C@H](CCC(N)=O)NC1=O` [Compound 16] were, in that order, 2.4 nM and 46%.
For `CC[C@H](C)[C@@H]1NC(=O)[C@H](Cc2ccccc2)NC(=O)[C@@H](N)CSSC[C@@H](C(=O)N2CCC[C@H]2C(=O)N[C@@H](CCCNCCCCCC(=O)NCCCC[C@H](NC(=O)[C@H](CCCNC(=N)N)NC(=O)[C@@H]2CCCN2C(=O)[C@H](CCCNC(=N)N)NC(=O)[C@H](CC(N)=O)NC(=O)[C@H](CCC(N)=O)NC(=O)[C@H](Cc2ccccc2)NC(=O)[C@@H](Cc2ccc(OC)cc2)NC(=O)Cc2ccccc2)C(N)=O)C(=O)NCC(N)=O)NC(=O)[C@H](CC(N)=O)NC(=O)[C@H](CCC(N)=O)NC1=O` [Compound 6], in that order: 2.5 nM and 28%.
The like results for `CC[C@H](C)[C@@H]1NC(=O)[C@H](Cc2ccccc2)NC(=O)[C@@H](N)CSSC[C@@H](C(=O)N2CCC[C@H]2C(=O)N[C@@H](CCNC(=O)[C@@H](N)CCCCNC(=O)CC[C@H](NC(=O)[C@H](CCCNC(=N)N)NC(=O)[C@@H]2CCCN2C(=O)[C@H](CCCNC(N)=O)NC(=O)[C@H](CC(N)=O)NC(=O)[C@H](CCC(N)=O)NC(=O)[C@H](Cc2ccccc2)NC(=O)[C@@H](Cc2ccc(OC)cc2)NC(=O)Cc2ccccc2)C(N)=O)C(=O)NCC(N)=O)NC(=O)[C@H](CC(N)=O)NC(=O)[C@H](CCC(N)=O)NC1=O` [Compound 44] (I: H-CFIQNCP[Dab]G-NH2 / II: PhAc-[dY](Me)FQN[Cit]PR[isoGln][εLys]; disulfide I:1-I:6; amide I:8-II:C) were, in that order, 2 nM and 40%.
Regarding `CC[C@H](C)[C@@H]1NC(=O)[C@H](Cc2ccccc2)NC(=O)[C@@H](N)CSSC[C@@H](C(=O)N2CCC[C@H]2C(=O)N[C@@H](CCNC(=O)[C@@H](N)CCC(=O)NCCCC[C@H](NC(=O)[C@H](CCCNC(=N)N)NC(=O)[C@@H]2CCCN2C(=O)[C@H](C)NC(=O)[C@H](CC(N)=O)NC(=O)[C@H](CCC(N)=O)NC(=O)[C@H](Cc2ccccc2)NC(=O)[C@@H](Cc2ccc(OC)cc2)NC(=O)Cc2ccccc2)C(N)=O)C(=O)NCC(N)=O)NC(=O)[C@H](CC(N)=O)NC(=O)[C@H](CCCC(N)=O)NC1=O` [Compound 64] (I: H-CFI[Aad](NH2)NCP[Dab]G-NH2 / II: PhAc-[dY](Me)FQNAPRK-NH2; disulfide I:1-I:6; linker I:8-II:8 via X1), the EC50 was 2.9 nM and the Emax was 42%.
For the compound `CC[C@H](C)[C@@H]1NC(=O)[C@H](Cc2ccccc2)NC(=O)[C@@H](N)CSSC[C@@H](C(=O)N2CCC[C@H]2C(=O)N[C@@H](CCNC(=O)[C@@H](N)CCCCNC(=O)CC[C@H](NC(=O)[C@H](CCCNC(=N)N)NC(=O)[C@@H]2CCCN2C(=O)[C@H](CCCNC(=N)N)NC(=O)[C@H](CC(N)=O)NC(=O)[C@H](CCC(N)=O)NC(=O)[C@@H](NC(=O)[C@@H](Cc2ccc(OC)cc2)NC(=O)Cc2ccccc2)[C@@H](C)CC)C(N)=O)C(=O)NCC(N)=O)NC(=O)[C@H](CC(N)=O)NC(=O)[C@H](CCC(N)=O)NC1=O` [Compound 36] (I: H-CFIQNCP[Dab]G-NH2 / II: PhAc-[dY](Me)IQNRPR[isoGln][εLys]; disulfide I:1-I:6; amide I:8-II:C), the EC50 is 1.2 nM and the Emax came out at 46%.
With `CC[C@H](C)[C@@H]1NC(=O)[C@H](Cc2ccccc2)NC(=O)[C@@H](N)CSSC[C@@H](C(=O)N2CCC[C@H]2C(=O)N[C@@H](CCNC(=O)[C@@H](N)CCCCNC(=O)CC[C@H](NC(=O)[C@H](CCCNC(=N)N)NC(=O)[C@@H]2CCCN2C(=O)[C@H](CCCNC(N)=O)NC(=O)[C@H](CC(N)=O)NC(=O)[C@H](CCC(N)=O)NC(=O)[C@H](Cc2ccccc2)NC(=O)[C@@H](Cc2ccc(OC)cc2)NC(=O)Cc2ccccc2)C(N)=O)C(=O)NCC(N)=O)NC(=O)[C@H](CC(N)=O)NC(=O)[C@H](CCCC(N)=O)NC1=O` [Compound 47] (I: H-CFI[Aad](NH2)NCP[Dab]G-NH2 / II: PhAc-[dY](Me)FQN[Cit]PR[isoGln][εLys]; disulfide I:1-I:6 (inferred); amide I:8-II:C (inferred)), the EC50 came to 1.8 nM and the Emax is 45%.
The like results for `CC[C@H](C)[C@@H]1NC(=O)[C@H](Cc2ccccc2)NC(=O)[C@@H](N)CSSC[C@@H](C(=O)N2CCC[C@H]2C(=O)N[C@@H](CCCNCCCCNC(=O)CCCC(=O)NCCCC[C@H](NC(=O)[C@H](CCCNC(=N)N)NC(=O)[C@@H]2CCCN2C(=O)[C@H](CCCNC(=N)N)NC(=O)[C@H](CC(N)=O)NC(=O)[C@H](CCC(N)=O)NC(=O)[C@H](Cc2ccccc2)NC(=O)[C@@H](Cc2ccc(OC)cc2)NC(=O)Cc2ccccc2)C(N)=O)C(=O)NCC(N)=O)NC(=O)[C@H](CC(N)=O)NC(=O)[C@H](CCC(N)=O)NC1=O` [Compound 3] (I: H-CFIQNCP[X3]G-NH2 / II: PhAc-[dY](Me)FQNRPRK-NH2; disulfide I:1-I:6; linker I:8-II:8 via Glutaryl) were, in that order, 2.9 nM and 39%.
As for `CC[C@H](C)[C@@H]1NC(=O)[C@H](Cc2ccccc2)NC(=O)[C@@H](N)CSSC[C@@H](C(=O)N2CCC[C@H]2C(=O)N[C@@H](CCCNC(=O)[C@H](CCCCNC(=O)CC[C@H](NC(=O)[C@H](CCCNC(=N)N)NC(=O)[C@@H]2CCCN2C(=O)[C@H](CCCNC(=N)N)NC(=O)[C@H](CC(N)=O)NC(=O)[C@H](CCC(N)=O)NC(=O)[C@H](Cc2ccccc2)NC(=O)[C@@H](Cc2ccc(OC)cc2)NC(=O)Cc2ccccc2)C(N)=O)NC(=N)N)C(=O)NCC(N)=O)NC(=O)[C@H](CC(N)=O)NC(=O)[C@H](CCC(N)=O)NC1=O` [Compound 26] (I: H-CFIQNCP[Orn]G-NH2 / II: PhAc-[dY](Me)FQNRPR[isoGln][X2]; disulfide I:1-I:6; amide I:8-II:C), the EC50 was 0.93 nM and the Emax worked out at 32%.
